Experimental data published in US8673368B2, “Cannabinoid-containing plant extracts as neuroprotective agents” (GW Pharma Limited, priority 2006, dated 2014).

How the values were obtained:
NMDA receptor = conditions: cited from earlier work
hippocampal neurones [1] = test: Effect of five-minute application of 1 μM test article on intracellular calcium levels (calcium imaging, Fura-2-AM); type: cell-based, Lister-Hooded rat; conditions: for Concentration of intracellular Ca2+ Post-treatment: after five-minute application of 1 μM test article; for Fura-2 350/380 nm ratio, pre-treatment: baseline before five-minute application of 1 μM test article; for %ΔF/F / Concentration of intracellular Ca2+ Response (Post-Pre): five-minute application of 1 μM test article
Procedure: (§1) Standard primary hippocampal cultures were prepared from Lister-Hooded rat pups (1-3 days old), euthanised by cervical dislocation, in accordance with Home Office and institute regulations. The brain was quickly removed, hippocampi dissected out and placed in ice-cold filtered HEPES buffered solution (HBS, composition in mM: NaCl 130; KCl 5.4; CaCl2 1.8; MgCl2 1.0; HEPES 10; glucose 25). Micro-dissection was performed to remove blood vessels and excess, non-hippocampal, tissue.
(§2) The hippocampal tissue was thinly chopped and placed in 1 mg/ml type X and XIV protease solution (40 minutes). The tissue was then washed in HBS and triturated several times using graded fire-polished glass Pasteur pipettes. Following centrifugation, the supernatant was removed and the remaining tissue pellet re-suspended in tissue culture medium (90% Minimum Essential Medium with 10% foetal bovine serum and 2 mM L-glutamine). The tissue was stored at standard conditions: in a humidified incubator at 37° C. and in 5% CO2, and re-centrifuged.
(§3) Excess medium was removed and the tissue pellet re-suspended in culture medium for plating. A drop of cell suspension was placed on the centre of a 35 mm culture dish, coated with poly-L-lysine and incubated at 37° C. for 1 hour. Following this, a further 2 ml of tissue culture medium was gently added to each dish and the culture kept in a humidified incubator (37° C.; 5% CO2).
(§4) Cultures were allowed to mature for 2 days before replacement of MEM with Neurobasal Medium, supplemented with 2% B27, 2 mM L-glutamine, and 25 μM L-glutamate. Culture dishes were used for imaging at 5-10 days in vitro.
(§5) For calcium imaging experiments, hippocampal cultures were washed with HBS at room temperature and loaded with the cell-permeable fluorescent calcium indicator Fura-2-AM (10 μM) for 1 hour in the dark.
(§6) The sodium channel blocker tetrodotoxin (TTX) was added to all perfusion media, to avoid spontaneous cell firing and transmitter release, ensuring only post-synaptic effects were visualised.
(§7) Cultures were perfused with HBS or low Mg^2+HEPES buffered solution for experiments involving NMDA (composition in mM: NaCl 130; KCl 5.4; CaCl2 1.8; MgCl2 0.1; HEPES 10; glucose 25), at a rate of 1-2 ml/min, using a gravity perfusion system.
(§8) A suitable field of cells was identified under the microscope and a greyscale transmission image visualised and captured using Oracal software. A Xenon lamp, which gave a single wavelength of light, was used to expose the cells to 350 nm and 380 nm, specified by the monochromator.
(§9) The ratio of these wavelengths, which is directly proportional to intracellular calcium levels in the cells, was plotted after background fluorescence subtraction.
(§10) The data that were produced were pooled and means for each experiment determined.
In order to test the regulation of calcium homeostasis in the presence of the test article, the effects were measured in response to a five-minute application of 1 μM sample.
(§11) Fluorescent units were converted into %ΔF/F. F is defined as an average of five baseline values before drug application. The value for %ΔF/F is therefore the percentage change in the […] by the average baseline value before drug application.
All experiments were performed a minimum of three times, each on neurones from a different culture. Only changes in fluorescence >0.1 ratio units were considered as a response. Data were exported to Excel and statistical analysis performed using Prism. Normality tests confirmed absence of normal distribution of data. Therefore, a Mann Whitney U test was utilised for paired comparisons and for multiple group comparisons a Kruskal-Wallis test with either a Dunn's or Mann Whitney post-test used.
The effects of the essentially pure cannabinoids, the cannabinoid-containing plant extracts and the cannabinoid-ratioed comparators were assessed to investigate the responses of the neurones to these different forms of cannabinoid.

hippocampal neurones [2] = test: Acute modulation of NMDA (10 μM) calcium response by five-minute application of 1 μM test article; type: cell-based, Lister-Hooded rat; conditions: for Pre-treatment %ΔF/F / Pre-treatment [Ca2+]: initial two-minute NMDA (10 μM) application, before test article; for Response (% change): reduction of NMDA (10 μM) calcium response by 1 μM test article, positive = reduction; for Post-treatment %ΔF/F / Post-treatment [Ca2+]: second two-minute NMDA (10 μM) application after five minutes of 1 μM test article
Procedure: as §1, §2, §3, §4, §5, §6, §7, §8, §9, §10
(§12) A stock of NMDA (10 mM) was made up in double-distilled water and the necessary concentrations made up in HBS. NMDA (with 100 μM glycine) was applied in every experiment to categorically distinguish between neuronal and glial cells in the image obtained.
The acute modulatory effect of calcium homeostasis was assessed by comparing an initial two-minute application of NMDA (10 μM) with a subsequent two-minute application of NMDA (10 μM). The subsequent application of the NMDA followed a five minute application of 1 μM sample.
as §11
(§13) All experiments were performed a minimum of three times, each on neurones from a different culture. Only changes in fluorescence >0.1 ratio units were considered as a response. Data were exported to Excel and statistical analysis performed using Prism. Normality tests confirmed absence of normal distribution of data. […]

hippocampal neurones [3] = test: Intracellular calcium ion concentration after overnight incubation with 1 μM test article; type: cell-based, Lister-Hooded rat; conditions: for Concentration of intracellular Ca2+ Response (Post-Pre): overnight incubation with 1 μM test article at 37° C., 5% CO2; for Change from control (%): overnight incubation with 1 μM test article, control = naïve culture dishes, minus = reduction
Procedure: as §1, §2, §3, §4, §5, §6, §7, §8, §9, §10
(§14) To assess the effects of the test articles under more realistic chronic treatment regimes, cells were incubated overnight with 1 μM sample and responses to increasing doses of NMDA assessed (1, 10 & 100 μM).
as §11
All experiments were performed a minimum of three times, each on neurones from a different culture. Only changes in fluorescence >0.1 ratio units were considered as a response. […]

hippocampal neurones [4] = test: Response to increasing doses of NMDA after overnight incubation with 1 μM test article; type: cell-based, Lister-Hooded rat
Procedure: as §1, §2, §3, §4, §5, §6, §7, §8, §9, §10, §12, §14, §11, §13

hippocampal neurones [5] = test: Acute effect on NMDA calcium ion response following overnight incubation with test article; type: cell-based, Lister-Hooded rat; conditions: for Response (% change): overnight incubation plus acute 1 μM test article, NMDA 10 μM, positive = reduction, minus = increase; for Post-treatment %ΔF/F / Post-treatment [Ca2+] / Pre-treatment %ΔF/F / Pre-treatment [Ca2+]: overnight incubation with 1 μM test article; for Post-treatment %ΔF/F / Post-treatment [Ca2+]: NMDA 10 μM after 5 minute application of 1 μM same test article; for Pre-treatment %ΔF/F / Pre-treatment [Ca2+]: NMDA 10 μM for 2 minutes, before acute application
Procedure: as §1, §2, §3, §4, §5, §6, §7, §8, §9, §10, §12
In order to assess whether the acute modulatory effects are altered by overnight incubation, the cells were incubated overnight with the 1 μM sample and assessed by comparing an initial two-minute application of NMDA (10 μM) with a subsequent two-minute application of NMDA (10 μM). The subsequent application of the NMDA followed a five minute application of 1 μM test article.
as §11
All experiments were performed a minimum of three times, each on neurones from a different culture. Only changes in fluorescence >0.1 ratio units were considered as a response. Data were exported to Excel and statistical analysis performed using Prism. […]

[6] = test system: neuronal cultures exposed to glutamate; conditions: in vitro, isolated or synthetic cannabinoid; cited from earlier work
[7] = isolated or synthetic CBD; cited from earlier work

Row | Compound | Concentration of intracellular Ca2+ Post-treatment (hippocampal neurones [1]) | Fura-2 350/380 nm ratio, pre-treatment (hippocampal neurones [1]) | %ΔF/F (hippocampal neurones [1]) [%] | Concentration of intracellular Ca2+ Response (Post-Pre) (hippocampal neurones [1]) | Pre-treatment %ΔF/F (hippocampal neurones [2]) [%] | Pre-treatment [Ca2+] (hippocampal neurones [2]) | Response (% change) (hippocampal neurones [2]) [%] | Post-treatment %ΔF/F (hippocampal neurones [2]) [%] | Post-treatment [Ca2+] (hippocampal neurones [2]) | Concentration of intracellular Ca2+ Response (Post-Pre) (hippocampal neurones [3]) | Change from control (%) (hippocampal neurones [3]) | %ΔF/F (hippocampal neurones [4]; 1 μM NMDA) [%] | Concentration of intracellular Ca2+ Post-treatment (hippocampal neurones [4]; 1 μM NMDA) | Concentration of intracellular Ca2+ Pre-treatment (hippocampal neurones [4]; 1 μM NMDA) | Concentration of intracellular Ca2+ Response (Post-Pre) (hippocampal neurones [4]; 1 μM NMDA) | %ΔF/F (hippocampal neurones [4]; 10 μM NMDA) [%] | Concentration of intracellular Ca2+ Post-treatment (hippocampal neurones [4]; 10 μM NMDA) | Concentration of intracellular Ca2+ Pre-treatment (hippocampal neurones [4]; 10 μM NMDA) | Concentration of intracellular Ca2+ Response (Post-Pre) (hippocampal neurones [4]; 10 μM NMDA) | %ΔF/F (hippocampal neurones [4]; 100 μM NMDA) [%] | further results
1 | O=C(O)[C@@H]1C[C@H](CP(=O)(O)O)CCN1 (racemic) [Selfotel] | – | – | – | – | – | – | – | – | – | – | – | – | – | – | – | – | – | – | – | – | Mortality rate versus placebo (NMDA receptor; stroke patients): trends towards a higher mortality rate
2 | CN1CC[C@@]23CCCC[C@@H]2[C@@H]1Cc1ccc(O)cc13 [Dextrorphan] | – | – | – | – | – | – | – | – | – | – | – | – | – | – | – | – | – | – | – | – | Side effects (NMDA receptor; human subjects): hallucinations, agitation and hypotension
3 | C=C(C)[C@@H]1CCC(C)=C[C@H]1c1c(O)cc(CCCCC)cc1O [P-CBD, cannabidiol] | 1.172 | 0.805 | 45.45 | 0.367 | 91.70 | 0.722 | 58.2 | 32.91 | 0.302 | 0.893 | 13.2 | 43.80 | 0.410 | 0.933 | −0.523 | 53.54 | 0.489 | 0.913 | −0.424 | 141.57 | Response (% change) (hippocampal neurones [2]; listed as essentially pure CBD): far greater reduction; Concentration of intracellular Ca2+ Post-treatment (hippocampal neurones [4]; 100 μM NMDA): 1.289; Concentration of intracellular Ca2+ Pre-treatment (hippocampal neurones [4]; 100 μM NMDA): 0.910; Concentration of intracellular Ca2+ Response (Post-Pre) (hippocampal neurones [4]; 100 μM NMDA): 0.379; Response (% change) (hippocampal neurones [5]): −68.6%; Response (% change) (hippocampal neurones [5]; listed as essentially pure CBD): increased the concentration to a large extent; Post-treatment %ΔF/F (hippocampal neurones [5]): 71.97%; Post-treatment [Ca2+] (hippocampal neurones [5]): 0.715; Pre-treatment %ΔF/F (hippocampal neurones [5]): 52.42%; Pre-treatment [Ca2+] (hippocampal neurones [5]): 0.424; Prevention of glutamate toxicity [6]: prevented to some extent; Difference between treated and placebo treated animals [7]: failed to find a difference
4 | CCCCCc1cc(O)c2c(c1)OC(C)(C)[C@@H]1CCC(C)=C[C@@H]21 [P-THC, tetrahydrocannabinol] | 0.588 | 0.363 | 56.38 | 0.225 | 93.69 | 0.741 | 19.6 | 63.81 | 0.596 | 0.826 | 6.2 | 62.24 | 0.522 | 0.839 | −0.317 | 57.50 | 0.498 | 0.866 | −0.368 | 200.35 | Response (% change) (hippocampal neurones [2]; listed as essentially pure THC): lowest amount of reduction; Change from control (%) (hippocampal neurones [3]; listed as essentially pure THC): increase; Concentration of intracellular Ca2+ Response (Post-Pre) (hippocampal neurones [4]; 1 μM NMDA, listed as essentially pure THC): did not reduce the concentration of calcium ions as much as the others; Concentration of intracellular Ca2+ Post-treatment (hippocampal neurones [4]; 100 μM NMDA): 1.897; Concentration of intracellular Ca2+ Pre-treatment (hippocampal neurones [4]; 100 μM NMDA): 0.947; Concentration of intracellular Ca2+ Response (Post-Pre) (hippocampal neurones [4]; 100 μM NMDA): 0.950; Response (% change) (hippocampal neurones [5]): −28.5%; Post-treatment %ΔF/F (hippocampal neurones [5]): 38.93%; Post-treatment [Ca2+] (hippocampal neurones [5]): 0.487; Pre-treatment %ΔF/F (hippocampal neurones [5]): 46.53%; Pre-treatment [Ca2+] (hippocampal neurones [5]): 0.379; Prevention of glutamate toxicity [6]: prevented to some extent
